Laboratory results taken from ChEMBL document CHEMBL1156829 (Proc Natl Acad Sci U S A, 2008).

Tests used:
Plasmodium falciparum [1] = test: NOVARTIS: Inhibition of Plasmodium falciparum 3D7 (drug-susceptible) proliferation in erythrocyte-based infection assay; assay type: functional, organism-based; conditions: Plasmodium falciparum, 3D7
Plasmodium falciparum [2] = test: NOVARTIS: Inhibition of Plasmodium falciparum W2 (drug-resistant) proliferation in erythrocyte-based infection assay; assay type: functional, organism-based; conditions: Plasmodium falciparum, W2; read-out: EC50
[3] = NOVARTIS: Cytotoxicity against human hepatocellular carcinoma cell line (Huh7); assay type: toxicity, cell-based, Huh-7; conditions: Huh7 cells (hepatocellular carcinoma cell line)

SMILES	EC50 (Plasmodium falciparum [1])	EC50 (Plasmodium falciparum [2])	CC50 [3]
Nc1nc(N)c2c(Oc3ccccc3)cccc2n1	0.448 µM	0.0267 µM	> 10 µM
C(#Cc1ccccc1)C[N+]1(CC#Cc2ccc(C#CC[N+]3(CC#Cc4ccccc4)CCCCC3)cc2)CCCCC1	0.493 µM	0.252 µM	> 100 µM
OCC(O)COc1cccc2ccccc12 (stereo not given)	> 1.05 µM	< 0.0297 µM	> 11.2 µM
CC(C)c1ccc(NC(=O)C=Cc2ccccc2Cl)cc1	0.102 µM	0.0456 µM	17.5 µM
CN(C)c1cc[n+](CC(=O)c2ccc(Br)cc2)cc1	0.211 µM	0.183 µM	75.6 µM
O=C(Nc1ccc(NC2=NCCN2)cc1)c1ccc(C(=O)Nc2ccc(NC3=NCCN3)cc2)cc1	0.166 µM	0.0256 µM	> 10 µM
O=C1CSC(=Nc2ccc(F)c(Cl)c2)N1c1ccc(F)c(Cl)c1	> 1.25 µM	0.0267 µM	> 10 µM
O=C(CN1CCC(NC(=O)c2cccc(F)c2)CC1)NC1CC1	> 1.25 µM	0.0267 µM	> 10 µM
CO[C@H]1C[C@H](C)Cc2cc(O)cc(c2)NC(=O)C(C)=CCC[C@H](OC)[C@@H](OC(N)=O)C(C)=CC(C)[C@H]1O (stereo not given in full)	> 1.25 µM	0.0267 µM	> 10 µM
CCCCN(CCCC)CC(O)c1cc(-c2ccc(Cl)cc2)nc2cc(Cl)ccc12 (stereo not given)	0.189 µM	0.0326 µM	> 12.4 µM
COc1cc(OC)cc(C(=O)NCc2n[nH]c(=S)n2-c2cccc(C(F)(F)F)c2)c1	0.258 µM	0.261 µM	> 100 µM
Cc1cc(C)c2c(c1)OC(N)(C(Cl)(Cl)Cl)CC2=O (stereo not given)	0.435 µM	0.261 µM	> 100 µM
O=C(Nc1ccccc1)c1ccccc1OCC(O)Cn1c2ccccc2c2ccccc21 (stereo not given)	0.282 µM	0.267 µM	> 100 µM
CCCCNCC(O)(c1ccc(Cl)cc1)c1ccc(Cl)cc1	0.72 µM	0.0997 µM	38.5 µM
COc1ccccc1NC(=O)N(CCC(C)C)C(C)c1nc2ccccc2c(=O)n1-c1ccccc1Cl (stereo not given)	0.817 µM	< 0.0258 µM	> 10 µM
CSC(Cl)=C(NC(C)=O)[P+](c1ccccc1)(c1ccccc1)c1ccccc1	0.126 µM	0.257 µM	> 100 µM
CCCN1CCC(NC(c2ccccc2)c2ccc(Cl)cc2)CC1 (stereo not given)	0.753 µM	0.0519 µM	20.2 µM
CC1CCCCN1CCCNc1ncc(C(=O)NCC2CCCO2)c(NCCc2ccccc2)n1 (stereo not given)	0.918 µM	0.0267 µM	> 10 µM
CC(C)CNC(=O)c1cnc(NCCCN)nc1NC1CCCC1	0.635 µM	0.0267 µM	> 10 µM
CCCCCc1nnc(NC(=O)c2ccc(-c3ccc(OC)cc3)cc2)s1	0.457 µM	0.0267 µM	> 10 µM
O=C1Nc2ccc(Br)cc2C12NCCc1c2[nH]c2ccccc12 (stereo not given)	0.198 µM	0.111 µM	42.2 µM
COc1c2occc2c(OC)c2c(=O)cc(C(Cl)(Cl)Cl)oc12	0.646 µM	0.255 µM	> 100 µM
CCOC(=O)c1ccc(NCc2c(C)[nH]c3ccccc3c2=O)cc1	0.342 µM	0.254 µM	> 100 µM
Cc1ccc2c(c1)-c1c(ssc1=S)C(C)(C)N2C(=O)c1ccco1	0.276 µM	0.254 µM	> 100 µM
Cn1c(=NC(=O)c2ccc(S(=O)(=O)N3CCCCC3)cc2)sc2cc(Cl)ccc21	> 1.25 µM	0.0267 µM	> 10 µM
CCCCCCN(C(=O)CCc1ccccc1)C(CC)c1nc2ccccc2c(=O)n1-c1ccc(Cl)cc1 (stereo not given)	1.16 µM	0.0267 µM	> 10 µM
CCOc1ccc(C=C(C#N)c2nc3ccccc3[nH]2)cc1OC	0.516 µM	0.263 µM	> 100 µM
O=C1C(NC2CCCCC2)=C(N2CCOCC2)C(=O)c2ccccc21	0.139 µM	0.116 µM	46.1 µM

SMILES	EC50 (Plasmodium falciparum [1])	EC50 (Plasmodium falciparum [2])	CC50 [3]
Cc1ccc2[nH]c3c(NCCN4CCCCC4)ncnc3c2c1	0.216 µM	0.099 µM	39.7 µM
CC(=O)c1c(C)n(CC(=O)Nc2cccc(C)c2)c2ccccc12	0.329 µM	0.248 µM	> 100 µM
CCOc1ccc(NC(=O)c2ccc(F)c(S(=O)(=O)NC3CCCCCC3)c2)cc1	1.35 µM	0.135 µM	54.8 µM
Oc1ccc(-c2ccnc3cc(Cl)ccc23)cc1CNC1CN2CCC1CC2 (stereo not given)	0.986 µM	< 0.0241 µM	> 10 µM
O=C(NCC1CCCO1)c1cnc(NCCCn2ccnc2)nc1NCCc1ccccc1 (stereo not given)	1.01 µM	0.0267 µM	> 10 µM
CC(C)C(=O)N1CCOc2c(cc(-c3csc4ccccc34)cc2OCCc2ccccn2)C1	0.183 µM	0.125 µM	50.6 µM
O=[N+]([O-])c1cccc2c1nnn2C12CC3CC(CC(O)(C3)C1)C2	0.536 µM	0.245 µM	> 100 µM
Nc1noc2cccc(OC3CCNCC3)c12	1.03 µM	< 0.0245 µM	> 10 µM
CCN1C=CC(=Cc2ccc3cc(C)ccc3[n+]2C)C=C1	0.17 µM	0.14 µM	> 58 µM
CC1=C(C(=O)OC2CCCC2)C(c2ccccc2F)C2=C(CC(c3ccccc3)CC2=O)N1 (stereo not given)	0.541 µM	0.259 µM	> 100 µM
CCCCNC(=O)CSCc1cnn(-c2ccccc2)c1-n1cccc1	0.253 µM	0.257 µM	> 100 µM
Oc1ccc(-c2ccnc3cc(Cl)ccc23)cc1CNC1CCCCC1	0.119 µM	0.0152 µM	5.94 µM
O=[N+]([O-])c1ccc(-n2ncc(-c3nc(-c4ccc(Cl)cc4)no3)c2C(F)(F)F)cc1	> 1.21 µM	0.0267 µM	> 10 µM
COc1cc(C2CC(=O)NC(C)=C2C(=O)OC(C)C)c(OC)cc1Br (stereo not given)	1.03 µM	0.242 µM	> 100 µM
N#Cc1c2c(c(N3CCN(Cc4ccccc4)CC3)n3c1nc1ccccc13)CCC2	0.311 µM	0.248 µM	> 100 µM
CN(C)C=Nc1nn(C)cc1C(=O)Nc1ccc(F)c(Cl)c1	> 7.01 µM	0.264 µM	> 100 µM
CCCCCCCCC(=O)Nc1c(C)cccc1C	> 1.25 µM	0.0267 µM	> 10 µM
Cc1ccccc1C=NNc1nc2ccccc2[nH]1	0.605 µM	0.249 µM	> 100 µM
CCOc1c(Br)cc(C2C(C(=O)OC)=CN(C)C=C2C(=O)OC)cc1OC	0.292 µM	0.263 µM	> 100 µM
CCN(CC)CCNC(=O)c1cc(-c2ccc(Cl)cc2)cc(-n2cnnn2)c1	0.644 µM	< 0.0261 µM	> 10 µM
CC[n+]1cccc2ccc3cccnc3c21	0.553 µM	0.257 µM	> 100 µM
COc1cc(OC)cc(C(=O)NCc2n[nH]c(=S)n2-c2ccc(Br)cc2)c1	0.325 µM	0.252 µM	> 100 µM
O=C(Nc1ccc2nc3n(c(=O)c2c1)CCCCC3)C(=O)N1CCN(c2cccc(Cl)c2)CC1	1.81 µM	0.25 µM	> 100 µM
Cc1ccn2c(NC(C)(C)CC(C)(C)C)c(-c3ccccc3OC(=O)c3ccc4c(c3)OCO4)nc2c1	0.831 µM	0.0241 µM	> 10 µM
CC(C)(C)OCCN(CC(O)CN(Cc1ccccc1)C(=O)NC(c1ccccc1)c1ccccc1)S(=O)(=O)c1ccccc1 (stereo not given)	1.1 µM	< 0.0264 µM	> 10 µM
CCCCN(CCCC)CCCNc1ncnc2c1[nH]c1ccc(Cl)cc12	0.231 µM	0.162 µM	61.8 µM
c1ccc2c(c1)[nH]c1ccc3ccncc3c12	0.0853 µM	0.0242 µM	> 10 µM
